{"source": "PubChem BioAssay (NCI)", "assay_in_all_cases": "NCI anticancer screen, dose series, 48 h", "key": {"K-562 leukemia": {"system": "K-562 leukemia"}, "RXF 393 renal": {"system": "RXF 393 renal"}, "SNB-75 CNS": {"system": "SNB-75 CNS"}, "UACC-62 melanoma": {"system": "UACC-62 melanoma"}, "UACC-257 melanoma": {"system": "UACC-257 melanoma"}, "NCI-H522 lung": {"system": "NCI-H522 lung"}, "OVCAR-5 ovarian": {"system": "OVCAR-5 ovarian"}, "OVCAR-8 ovarian": {"system": "OVCAR-8 ovarian"}, "U251 CNS": {"system": "U251 CNS"}, "UO-31 renal": {"system": "UO-31 renal"}, "PC-3 prostate": {"system": "PC-3 prostate"}, "HS 578T breast": {"system": "HS 578T breast"}, "ACHN renal": {"system": "ACHN renal"}, "HOP-62 NSCLC": {"system": "HOP-62 NSCLC"}, "CAKI-1 renal": {"system": "CAKI-1 renal"}, "NCI-H226 lung": {"system": "NCI-H226 lung"}, "M14 melanoma": {"system": "M14 melanoma"}, "SK-MEL-28 melanoma": {"system": "SK-MEL-28 melanoma"}, "SW-620 colon": {"system": "SW-620 colon"}, "HL-60(TB) leukemia": {"system": "HL-60(TB) leukemia"}, "SF-268 CNS": {"system": "SF-268 CNS"}, "HOP-92 NSCLC": {"system": "HOP-92 NSCLC"}, "NCI/ADR-RES ovarian": {"system": "NCI/ADR-RES ovarian"}, "OVCAR-4 ovarian": {"system": "OVCAR-4 ovarian"}, "MDA-MB-231 breast": {"system": "MDA-MB-231 breast"}, "SK-MEL-2 melanoma": {"system": "SK-MEL-2 melanoma"}, "MOLT-4 leukemia": {"system": "MOLT-4 leukemia"}, "SF-539 CNS": {"system": "SF-539 CNS"}, "DU-145 prostate": {"system": "DU-145 prostate"}, "SN12C renal": {"system": "SN12C renal"}, "A549 NSCLC": {"system": "A549 NSCLC"}, "NCI-H460 lung": {"system": "NCI-H460 lung"}, "CCRF-CEM leukemia": {"system": "CCRF-CEM leukemia"}, "SR leukemia": {"system": "SR leukemia"}, "TK-10 renal": {"system": "TK-10 renal"}, "NCI-H23 lung": {"system": "NCI-H23 lung"}, "MALME-3M melanoma": {"system": "MALME-3M melanoma"}, "SK-MEL-5 melanoma": {"system": "SK-MEL-5 melanoma"}, "MDA-MB-435": {"system": "MDA-MB-435"}, "MCF7 breast": {"system": "MCF7 breast"}, "SK-OV-3 ovarian": {"system": "SK-OV-3 ovarian"}, "OVCAR-3 ovarian": {"system": "OVCAR-3 ovarian"}, "SF-295 CNS": {"system": "SF-295 CNS"}, "HCT-116 colon": {"system": "HCT-116 colon"}, "COLO 205 colon": {"system": "COLO 205 colon"}, "SNB-19 CNS": {"system": "SNB-19 CNS"}, "BT-549 breast": {"system": "BT-549 breast"}, "LOX IMVI melanoma": {"system": "LOX IMVI melanoma"}, "IGROV1 ovarian": {"system": "IGROV1 ovarian"}, "HT29 colon": {"system": "HT29 colon"}, "786-0 renal": {"system": "786-0 renal"}, "MDA-N": {"system": "MDA-N"}, "KM12 colon": {"system": "KM12 colon"}, "T-47D breast": {"system": "T-47D breast"}, "HCT-15 colon": {"system": "HCT-15 colon"}}, "note": "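Compound exposure: 48 hours, 5 concentrations, 96-well plates. TGI is the concentration that stops growth completely.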", "data": [{"molecule": "COc1ccc(Nc2nn3c(=O)c4c(C)c(C)sc4nc3s2)cc1", "values": [{"measurement": "TGI", "setting": "K-562 leukemia", "value": "> 100", "unit": "µM"}, {"measurement": "TGI", "setting": "RXF 393 renal", "value": 36.7, "unit": "µM"}, {"measurement": "TGI", "setting": "SNB-75 CNS", "value": 49.8, "unit": "µM"}, {"measurement": "TGI", "setting": "UACC-62 melanoma", "value": "> 100", "unit": "µM"}, {"measurement": "TGI", "setting": "UACC-257 melanoma", "value": "> 100", "unit": "µM"}, {"measurement": "TGI", "setting": "NCI-H522 lung", "value": 67.1, "unit": "µM"}, {"measurement": "TGI", "setting": "OVCAR-5 ovarian", "value": "> 100", "unit": "µM"}, {"measurement": "TGI", "setting": "OVCAR-8 ovarian", "value": "> 100", "unit": "µM"}, {"measurement": "TGI", "setting": "U251 CNS", "value": "> 100", "unit": "µM"}, {"measurement": "TGI", "setting": "UO-31 renal", "value": 35.3, "unit": "µM"}, {"measurement": "TGI", "setting": "PC-3 prostate", "value": "> 100", "unit": "µM"}, {"measurement": "TGI", "setting": "HS 578T breast", "value": "> 100", "unit": "µM"}, {"measurement": "TGI", "setting": "ACHN renal", "value": "> 100", "unit": "µM"}, {"measurement": "TGI", "setting": "HOP-62 NSCLC", "value": 76.8, "unit": "µM"}, {"measurement": "TGI", "setting": "CAKI-1 renal", "value": "> 100", "unit": "µM"}, {"measurement": "TGI", "setting": "NCI-H226 lung", "value": "> 100", "unit": "µM"}, {"measurement": "TGI", "setting": "M14 melanoma", "value": "> 100", "unit": "µM"}, {"measurement": "TGI", "setting": "SK-MEL-28 melanoma", "value": "> 100", "unit": "µM"}, {"measurement": "TGI", "setting": "SW-620 colon", "value": "> 100", "unit": "µM"}, {"measurement": "TGI", "setting": "HL-60(TB) leukemia", "value": "> 100", "unit": "µM"}, {"measurement": "TGI", "setting": "SF-268 CNS", "value": "> 100", "unit": "µM"}, {"measurement": "TGI", "setting": "HOP-92 NSCLC", "value": 69.2, "unit": "µM"}, {"measurement": "TGI", "setting": "NCI/ADR-RES ovarian", "value": "> 100", "unit": "µM"}, {"measurement": "TGI", "setting": "OVCAR-4 ovarian", "value": 48.3, "unit": "µM"}, {"measurement": "TGI", "setting": "MDA-MB-231 breast", "value": "> 100", "unit": "µM"}, {"measurement": "TGI", "setting": "SK-MEL-2 melanoma", "value": "> 100", "unit": "µM"}, {"measurement": "TGI", "setting": "MOLT-4 leukemia", "value": "> 100", "unit": "µM"}, {"measurement": "TGI", "setting": "SF-539 CNS", "value": "> 100", "unit": "µM"}, {"measurement": "TGI", "setting": "DU-145 prostate", "value": 34.5, "unit": "µM"}, {"measurement": "TGI", "setting": "SN12C renal", "value": "> 100", "unit": "µM"}, {"measurement": "TGI", "setting": "A549 NSCLC", "value": 38.5, "unit": "µM"}, {"measurement": "TGI", "setting": "NCI-H460 lung", "value": "> 100", "unit": "µM"}, {"measurement": "TGI", "setting": "CCRF-CEM leukemia", "value": "> 100", "unit": "µM"}, {"measurement": "TGI", "setting": "SR leukemia", "value": "> 100", "unit": "µM"}, {"measurement": "TGI", "setting": "TK-10 renal", "value": 78.8, "unit": "µM"}, {"measurement": "TGI", "setting": "NCI-H23 lung", "value": 46.9, "unit": "µM"}, {"measurement": "TGI", "setting": "MALME-3M melanoma", "value": 89, "unit": "µM"}, {"measurement": "TGI", "setting": "SK-MEL-5 melanoma", "value": "> 100", "unit": "µM"}, {"measurement": "TGI", "setting": "MDA-MB-435", "value": "> 100", "unit": "µM"}, {"measurement": "TGI", "setting": "MCF7 breast", "value": "> 100", "unit": "µM"}, {"measurement": "TGI", "setting": "SK-OV-3 ovarian", "value": "> 100", "unit": "µM"}, {"measurement": "TGI", "setting": "OVCAR-3 ovarian", "value": 78.8, "unit": "µM"}, {"measurement": "TGI", "setting": "SF-295 CNS", "value": "> 100", "unit": "µM"}, {"measurement": "TGI", "setting": "HCT-116 colon", "value": 60.5, "unit": "µM"}, {"measurement": "TGI", "setting": "COLO 205 colon", "value": "> 100", "unit": "µM"}, {"measurement": "TGI", "setting": "SNB-19 CNS", "value": "> 100", "unit": "µM"}, {"measurement": "TGI", "setting": "BT-549 breast", "value": "> 100", "unit": "µM"}, {"measurement": "TGI", "setting": "LOX IMVI melanoma", "value": "> 100", "unit": "µM"}, {"measurement": "TGI", "setting": "IGROV1 ovarian", "value": "> 100", "unit": "µM"}, {"measurement": "TGI", "setting": "HT29 colon", "value": "> 100", "unit": "µM"}, {"measurement": "TGI", "setting": "786-0 renal", "value": 51, "unit": "µM"}, {"measurement": "TGI", "setting": "MDA-N", "value": "> 100", "unit": "µM"}, {"measurement": "TGI", "setting": "KM12 colon", "value": "> 100", "unit": "µM"}, {"measurement": "TGI", "setting": "T-47D breast", "value": 63.5, "unit": "µM"}, {"measurement": "TGI", "setting": "HCT-15 colon", "value": "> 100", "unit": "µM"}]}]}
